This note sets out measurements from the METLIN SMRT retention time set (Domingo-Almenara et al. 2019).

The structures appear in SMILES notation.

The data set can be described thus: gradient 5% acetonitrile 3 min, to 50% in 2 min, to 85% in 15 min, held 3 min, 100 µL/min. The following applies: column: Zorbax Extend-C18 2.1 x 50 mm; eluents: water / acetonitrile, 0.1% formic acid. In outline: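 Pure standards were analyzed in mixtures of ~100 molecules using HPLC coupled to a quadrupole time-of-flight mass spectrometer, in both positive and negative ionization mode. Separation used a Zorbax Extend-C18 column (2.1 × 50 mm, 1.8 μm) at 100 μL/min, with water and acetonitrile each containing 0.1% formic acid. Dead and dwell volumes were 40 μL and 900 μL, and data were collected over 3 months. Retention time was read from computationally picked adduct peaks, each inspected manually.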
For `CCOc1cc(=O)n2c(c1C(=O)NC1CCCCC1)CCCCC2`, the RP-LC retention time is 734 s.
As for `O=C(Nc1cccc(Br)c1)C1CC(=O)N(CCc2c[nH]c3ccc(F)cc23)C1` (centres undefined), the RP-LC retention time was 890 s.
Under `COC(=O)c1cn(CC(=O)N2CCc3ccccc3C2)c2ccccc12` stands 964 s; under `COc1ncc(C(=O)Nc2ccc(C)cc2C)c(C)n1`, 736 s; under `COc1ccc(N2CCN(c3cc(SCC(=O)Nc4ccc(OC)c(Cl)c4)ncn3)CC2)cc1`, 967 s.
The compound `CCC(C)NC(=O)Cn1nc2c3cc(-c4ccc(F)cc4)nn3ccn2c1=O` (centres undefined) yielded an RP-LC retention time of 764 s.
For `O=C(c1ccc(F)c(Cl)c1)N1CCc2nc[nH]c2C1`, the RP-LC retention time turned out to be 592 s.
Under `Cc1oc2ccn(Cc3cccc(F)c3)c(=O)c2c1C(=O)NCc1ccc(F)cc1F` stands 954 s; under `Cc1ccc(NC(=O)N2CCCC2c2cc(C)no2)c(Cl)c1` (centres undefined), 880 s.
Under `Cc1nc2cc(-c3noc(C4CC(=O)N(c5ccccc5)C4)n3)ccc2n(C2CCCC2)c1=O` (centres undefined) stands 1030 s.
Under `CCCN1CCN(C(=O)c2ccc3ccnc(N4CCN(c5ccc(Cl)cc5)CC4)c3c2)CC1` stands 643 s; under `COC(=O)c1ccccc1NC(=O)CCc1c(-c2ccc(F)cc2)nc2ccccn12`, 724 s; under `O=C(Cn1cccc(-c2nc(-c3ccc(Cl)cc3)no2)c1=O)Nc1ccc(F)cc1`, 956 s.
For the compound `CN1CCN(CCCNC(=O)CN2C(=O)CCn3nc(-c4cn(C)c5ccccc45)cc32)CC1`, the RP-LC retention time came to 587 s.
In the case of `O=C(NCc1ccccn1)C1CC(=O)N(CCc2c[nH]c3ccc(Cl)cc23)C1` (centres undefined) it was 627 s; in that of `COc1ccc(-c2nnc(Cc3nc(-c4cccc(Cl)c4)no3)o2)cc1OC`, 995 s.
For the compound `Cc1ccc(S(=O)(=O)c2ccc([N+](=O)[O-])o2)cc1`, the RP-LC retention time was 873 s.
`CC(C)c1noc(-c2cccnc2N2CCCN(Cc3cccc(Cl)c3)CC2)n1`: the RP-LC retention time is 742 s.
In the case of `COc1ccccc1CC(=O)Nc1ccc2c(c1)CCC(=O)N2C` it was 721 s.
`CCC(=O)N1CCc2cc(N3CC(C(=O)NCC4CC4)CC3=O)ccc21` (centres undefined) came in with an RP-LC retention time of 652 s.
In the case of `Cc1cc(C(=O)Nc2ccc(Cl)cc2)n(CC(=O)Nc2ccc(F)cc2)n1` it was 946 s; in that of `COc1ccc(-c2cc3n(n2)CCCN(C(=O)NCC2CCCO2)C3)cc1` (centres undefined), 681 s.
Under `COc1ccc(OC)c(NC(=O)c2cc(NC(=O)C(C)C)cc3nc(C)ccc23)c1` stands 663 s; under `CCOc1ccccc1C(=O)NCCS(=O)(=O)N1CCN(c2ccccn2)CC1`, 597 s; under `Fc1cccc(-c2noc(-c3ccc(N4CCN(c5ncccn5)CC4)nc3)n2)c1`, 1230 s.
Under `Cc1[nH]c(=O)[nH]c(=O)c1S(=O)(=O)NC(C)C` stands 581 s; under `CN(C)c1ncccc1NC(=O)c1cccc(C#N)c1`, 585 s; under `CCCC(NC(=O)c1ccc(F)cc1)C(=O)Nc1nc2ccccc2[nH]1` (centres undefined), 690 s.
For `O=c1c2cc(-c3ccccc3)nn2ccn1Cc1noc(CN2CCCCCC2)n1`, the RP-LC retention time stood at 671 s.
Under `O=C(NCc1ccc(S(=O)(=O)N2CCCC2)s1)c1cccc(-c2nnc(-c3ccccc3)o2)c1` stands 948 s.
In the case of `COCCc1nncn1C1CCN(C(=O)c2ccccc2OC(F)(F)F)CC1` it was 646 s; in that of `CN1CCOc2ccc(NC(=O)c3cc(-c4ccc(F)cc4)n[nH]3)cc2C1=O`, 686 s.
Under `Cc1cc(N2CCN(C(=O)C3CCC3)CC2)nc2nncn12` stands 566 s.
In turn, `COc1ccc(NC(=O)CN2CCC(C(=O)NCc3ccc(F)cc3F)CC2)c(OC)c1` yielded an RP-LC retention time of 578 s.
Under `CCN(CC)C(=O)c1cnc2snc(C)c2c1N1CCC(C(=O)Nc2ccc(C(C)C)cc2)CC1` stands 1040 s; under `CC(C)CCNC(=O)c1nnc(-c2ccc(S(=O)(=O)N3CCOCC3)cc2)o1`, 851 s.
In the case of `O=C(Nc1cnn(-c2ncncc2N2CCCCC2)c1)C1CC1` it was 604 s.
Under `NC(=O)C1CCN(c2ccc3cccc(OCC(=O)NCc4ccco4)c3n2)CC1` stands 552 s; under `O=C(CN1CCC(c2nc(-c3cccs3)no2)CC1)Nc1ccccc1C(F)(F)F`, 753 s; under `Cc1ccc(CN2C(=O)N(c3cccc(F)c3)c3ncccc3S2(=O)=O)cc1`, 1100 s.
`CCn1ncc(Cl)c1C(=O)N1CCCC1c1cccc(F)c1` (centres undefined) came in with an RP-LC retention time of 922 s.
Under `CCCN1CCN(C(=O)C2Cc3cc(S(=O)(=O)N(CC)CC)ccc3N2C(C)=O)CC1` (centres undefined) stands 610 s; under `COc1ccc(C2CCN(C(=O)c3ccoc3)CC2)cc1`, 853 s.
As to `CCCN1C(=O)c2cc(S(=O)(=O)Nc3ccc(C)c(F)c3)ccc2Oc2cccnc21`, the RP-LC retention time amounted to 1120 s.
In the case of `Cc1ccc2nc(N3CCNCC3)c(-c3noc(-c4ccccc4)n3)cc2c1`, the RP-LC retention time was 770 s.
In the case of `COc1cc(OC)c(NS(=O)(=O)c2cc(-c3cc(C(F)(F)F)on3)sc2C)cc1Cl` it was 1150 s; in that of `COc1ccc(CNC(=O)C2(c3ccc(NC(C)=O)cc3)CCC2)cc1`, 728 s.
Turning to `Cc1ccc(Cl)cc1N1CCN(C(=O)c2[nH]c(C)c(S(=O)(=O)N3CCCC3)c2C)CC1`, the RP-LC retention time amounted to 1060 s.
Under `Cc1ccc(N2CN(CC#N)S(=O)(=O)c3cccnc32)cc1` stands 877 s.
Under `CCCNC(=O)C12CCC(C)(C(=O)C1)C2(C)C` (centres undefined) stands 657 s; under `COc1cc(CNC(=O)CCc2ccc(C(F)(F)F)cc2)cc(OC)c1OC`, 809 s; under `CN(C(=O)c1nc(N2CCSCC2)c2cnn(C)c2n1)c1cccc(Cl)c1`, 842 s.
Under `CCS(=O)(=O)N1CC(=O)N(c2ccc(C(C)C)cc2)C(C)(C(=O)NCc2ccc(F)cc2)C1` (centres undefined) stands 872 s.
The compound `COc1ccc2[nH]c3c(c2c1)CCN1C(=O)N(CCc2ccc(OC)c(OC)c2)C(=O)C31C` (centres undefined) yielded an RP-LC retention time of 888 s.
In the case of `Cc1cc(C(=O)NCC(C)C)c2cccc(Cl)c2n1` it was 770 s; in that of `CCn1cc(CC(=O)Nc2ccc(OC)cc2)c2cccnc21`, 696 s; in that of `Cc1cc(N2CCN(C)CC2)nc2ccc(NC(=S)N(C)C3CCCCC3)cc12`, 583 s.
Under `COc1ccccc1-c1noc(-c2nnn3c2COC(c2ccc(F)cc2)C3)n1` (centres undefined) stands 1040 s; under `COC[C@@H]1CN(C(=O)c2cc(C)oc2C)C[C@H]1c1nc(C)no1`, 748 s; under `Cc1cccnc1NC(=O)Nc1c[nH]c2ccccc12`, 826 s.
Under `Cc1noc(C)c1CC(=O)NCC1Cn2cccc2C(=O)N1CC(C)C` (centres undefined) stands 664 s; under `Cc1ccc(NC(=O)C2CCCN(S(=O)(=O)c3c[nH]c(C(=O)N4CCCC4)c3)C2)cc1Cl` (centres undefined), 852 s.
`O=C(Nc1nnc(C2CC(=O)N(c3ccc(Cl)cc3)C2)o1)c1ccccc1` (centres undefined) gave an RP-LC retention time of 752 s.
In the case of `Cc1ccc(S(=O)(=O)c2nc(SCC(=O)N3CCCCC3)sc2Cl)cc1` it was 910 s.
Under `Cc1cc(SCC(=O)Nc2ccc(Cl)cc2C(F)(F)F)nc(-c2cccnc2)n1` stands 785 s.
In the case of `CC(C)NC(=O)c1ccc(OCC2CCCN2C(=O)c2ccc(C#N)cc2)cc1` (centres undefined) it was 734 s; in that of `COc1ccc(/C=C/C(=O)Nc2ccccc2C(=O)O)cc1OC`, 927 s.
In turn, `CN1C(=O)c2cc(C(=O)NCc3cccc(Cl)c3)nn2CC1(C)C(=O)NCc1ccccc1` (centres undefined) registered an RP-LC retention time of 793 s.
Under `COc1ccc(C)cc1Nc1c(C(=O)N2CCCC2)cnc2nc(C)ccc12` stands 601 s; under `Cc1ccc(-c2noc(Cn3ccn(Cc4ccc(Cl)cc4)c(=O)c3=O)n2)cc1`, 951 s; under `COc1cc2c(cc1Oc1ccc(OC)c3c1CC1c4c(cc(OC)c(OC)c4-3)CCN1C)CC1c3c(cc(OC)c(OC)c3-2)CCN1C` (centres undefined), 616 s.
Regarding `CCCNC(=O)C1CCCN(c2ccc(SCC(=O)Nc3ccc(F)cc3)nn2)C1` (centres undefined), the RP-LC retention time turned out to be 668 s.
In the case of `CC(C)n1c(=O)c2ccccc2n(Cc2nc(-c3ccccc3Cl)no2)c1=O` it was 1130 s; in that of `CCOc1ccc(NC(=O)c2oc3ccc(F)cc3c2C)c2cccnc12`, 710 s.
Under `O=C(O)c1ccc(Nc2ncnc3c2cnn3Cc2ccccc2)cc1` stands 772 s.
In the case of `CN1CCN(CCNC(=O)c2cc(-c3ccccc3)cn2C)CC1` it was 600 s.
Regarding `Cc1cc(C)cc(Nc2nc3ccncc3n(Cc3ccccc3)c2=O)c1`, the RP-LC retention time is 817 s.
Under `CSc1ccc(NC(=O)C2CCN(c3cnc4nc(C)c(C)nc4c3)CC2)cc1` stands 767 s.
Under `Cc1cc(C(=O)N2CC(n3cc(COc4ccc(F)cc4)nn3)C2)n(C)n1` stands 637 s.
